Laboratory results published in patent US20140005160A1, “Method for Treating Refractory Cancer” (priority 2010, published 2014).
Read-outs that look alike come from different tables or passages of the source.

Assays:
[1] = test system: human renal cell line A498; conditions: A498, same manner as Example 2
Description: See e.g., Mahalingam et al., Clin. Cancer Res., 16(1):141-153 (2010).

[2] = test system: breast cancer cell line MDA-MB-231; test: ATCC MTT Cell Proliferation Assay, MDA-MB-231; type: cell-based; conditions: for IC50: MDA-MB-231, same manner as Example 2 (Table 3); for IC50 Ratio (MDA-MB-231/MCF-7): ratio of IC50 in MDA-MB-231 to MCF-7
[3] = test system: breast cancer cell line MDA-MB-231; conditions: MDA-MB-231, 72 hours, EZ4U MTT (Table 4)
Method: (§1) Breast cancer cell line MDA-MB-231 and its corresponding bcrp-overexpressing line MDA-MB-231/bcrp were plated (2×10^3 cells in 100 μl/well) in 96-well plates and allowed to recover for 24 hours. […] The proportion of viable cells was determined by MTT assay following the manufacturer's recommendations (EZ4U, Biomedica, Vienna, Austria), and IC50 values were calculated. […] BCRP-overexpression confers resistance to drugs such as irinotecan, topotecan, mitoxantrone, methotrexate, camptothecins, gefitinib and imatinib etc. See Fojo & Menefee, Ann. Oncol., 18 (Supplement 5):v3-v8 (2007).

[4] = test system: bcrp-overexpressing line MDA-MB-231/bcrp; conditions: 72 hours, EZ4U MTT
Method: as §1

HCT-116 p53 (+/+) = conditions: Colon HCT-116 p53 (+/+), 72 hours exposure, MTT
Method: (§2) The colon carcinoma cell line HCT116 (HCT-116 p53 (+/+)) and the corresponding subline with deleted p53 genes (HCT-116 p53 (−/−)) were grown in McCoy's culture medium with 10% FCS. […] For cytotoxicity assays, cells were plated (2×10^3 cells in 100 μl/well) in 96-well plates and allowed to recover for 24 hours. […] The proportion of viable cells was determined by MTT assay following the manufacturer's recommendations (EZ4U, Biomedica, Vienna, Austria).

HCT-116 p53 (−/−) = conditions: Colon HCT-116 p53 (−/−), 72 hours exposure, MTT
Method: as §2

[5] = test system: human prostate cancer cell line LNCaP (prostate carcinoma); conditions: same manner as Example 2
Description: (§3) In addition, the IC50 values of docetaxel in the LNCaP and PC-3 cell lines were obtained from published literature. […] See Domingo-Domenech et al., Clin. Cancer Res., 12(18):5578-5586 (2006); Blagosklonny et al., J. Urol., 163(3):1022-6 (2000).

[6] = test system: human prostate cancer cell line PC-3 (prostate carcinoma)
Description: as §3

[7] = test system: human lung carcinoma cell line H1975; test: ATCC MTT Cell Proliferation Assay, H1975; type: cell-based; conditions: H1975 (KRAS wild type), same manner as Example 2
Description: (§4) Table 2 summarizes the results.

[8] = test system: human melanoma cell line A375; test: ATCC MTT Cell Proliferation Assay, A375
Method: (§6) Stock cultures were allowed to grow to 70-80% confluence for this study. […] ZR-75-1 plates were seeded with 3,000 cells/well, and the cells were grown in RPMI1640 medium containing 1% (1M HEPES), 1% sodium pyruvate, 1% (45% Glucose), 10% FBS and 1% penicillin/strep/glutamine. Cultures were maintained in a 37° C. humidified 5% CO2/95% air atmosphere. […] 100 μl of medium was removed from each well at 72 hours post-treatment and 10 μl MTT reagent was added to each well. The plates were incubated at 37° C. for 4 hours and then 100 μl of detergent was added. The plates were left overnight at room temperature in the dark and was read on a plate reader using SoftMax® Pro (version 5.2, Molecular Devices).
(§7) The absorbance data was analyzed as follows: Absorbance values were converted to Percent of Control and plotted against test agent concentrations for IC50 calculations using SoftMax® Pro (version 5.2, Molecular Devices). […] Percent of Control values were calculated by dividing the absorbance values for each test well by the No Drug Control average (column 11 values; cells+vehicle control) and multiplying by 100. Plots of Compound Concentration versus Percent of Control were analyzed using the 4-parameter equation to obtain IC50 values and other parameters that describe the sigmoidal dose response curve. […]

[9] = test system: alveolar epithelial cell carcinoma cell line SW-1573; conditions: SW1573 cell line, 72 hours, EZ4U MTT
Method: (§5) The alveolar epithelial cell carcinoma cell line SW-1573 and its MVP- and MRP1-overexpressing subline SW-1573/2R120 were grown in DMEM medium supplemented with 10% fetal calf serum. See Elbling et al., Cytometry, 31:187-198 (1998). Cells were plated (2×10^3 cells in 100 μl/well) in 96-well plates and allowed to recover for 24 hours. […] The proportion of viable cells was determined by MTT assay following the manufacturer's recommendations (EZ4U, Biomedica, Vienna, Austria). […] PGP/MRP-1-overexpression confers resistance to drugs such as vincristine, vinblastine, vinorelbine, taxol, docetaxel, etoposide, mitoxantrone, doxorubincin, epirubicin, topotecan, irinotecan, methotrexate, and imatinib etc. See Fojo & Menefee, Ann. Oncol., 18 (Supplement 5):v3-v8 (2007).

[10] = test system: MVP- and MRP1-overexpressing subline SW-1573/2R120; conditions: PGP/MRP-1-overexpressing cell line (SW-1573/2R120), 72 hours, EZ4U MTT
Method: as §5

[11] = test system: human lung carcinoma cell line NCI-H322M; test: ATCC MTT Cell Proliferation Assay, NCI-H322M; type: cell-based; conditions: for IC50: NCI-H322M (KRAS wild type), same manner as Example 2
Description: as §4

[12] = test system: human breast cancer cell line MX-1; test: ATCC MTT Cell Proliferation Assay, MX-1; type: cell-based; conditions: MX-1, 72 hours
Method: as §6, §7

[13] = test system: human lung carcinoma cell line A549; test: ATCC MTT Cell Proliferation Assay, A549; type: cell-based; conditions: for IC50 Ratio (A549/H1975): Table 5, ratio of IC50 in A549 to H1975
[14] = test system: breast cancer cell line MCF-7; test: ATCC MTT Cell Proliferation Assay, MCF-7; type: cell-based; conditions: MCF-7, same manner as Example 2
[15] = test system: human breast carcinoma cell line ZR-75-1; test: ATCC MTT Cell Proliferation Assay, ZR-75-1; type: cell-based; conditions: for IC50: ZR-75-1, 72 hours, MTT; for IC50 Ratio (ZR-75-1/MX-1): ratio of IC50 in ZR-75-1 to MX-1
Method: as §6
The absorbance data was analyzed as follows: Absorbance values were converted to Percent of Control and plotted against test agent concentrations for IC50 calculations using SoftMax® Pro (version 5.2, Molecular Devices). The plate blank signal average was subtracted from all wells prior to calculating the Percent of Control. Percent of Control values were calculated by dividing the absorbance values for each test well by the No Drug Control average (column 11 values; cells+vehicle control) and multiplying by 100. Plots of Compound Concentration versus Percent of Control were analyzed using the 4-parameter equation to obtain IC50 values and other parameters that describe the sigmoidal dose response curve.
The IC50 value for the test agent was estimated by curve-fitting the data using the following four parameter-logistic equation:
wherein “Top” is the maximal % of control absorbance (100%), “Bottom” is the minimal % of control absorbance at the highest agent concentration (down to zero), Y is the Percent of Control absorbance, X is the test agent Concentration, IC50 is the concentration of agent that inhibits cell growth by 50% compared to the control cells, n is the slope of the curve.

LNCaP cell line = conditions: from Domingo-Domenech et al. 2006; cited from earlier work
PC-3 cell line [16] = test: Published literature IC50 of docetaxel, PC-3; type: cell-based, human; conditions: ratio from published literature IC50 values
PC-3 cell line [17] = conditions: PC-3, from Domingo-Domenech et al. 2006; cited from earlier work

With `[Ga+3].[O-]c1cccc2cccnc12.[O-]c1cccc2cccnc12.[O-]c1cccc2cccnc12` the IC50 [1] was 32900 nM, the IC50 [2] was 838 nM and the “IC50 Ratio (MDA-MB-231/MCF-7)” value [2] was 0.681. The IC50 [3] was 1600 nM, the IC50 [4] was 1800 nM and the IC50 (HCT-116 p53 (+/+)) was 1800 nM. The IC50 (HCT-116 p53 (−/−)) was 1700 nM, the IC50 [5] was 2190 nM and the IC50 ([6]; PC-3, same manner as Example 2) was 1790 nM. The “IC50 Ratio (PC-3/LNCaP)” value ([6]; ratio of IC50 in PC-3 to LNCaP) was 0.82, the IC50 [7] was 3550 nM and the IC50 ([8]; A375, same manner as Example 2) was 1950 nM. It also gave an IC50 [9] of 1700 nM, an IC50 [10] of 2100 nM and an IC50 [11] of 4950 nM. The “IC50 Ratio (A549/H1975)” value ([11]; Table 6, Test Drug column, row NCI-H322M) was 1.39, the IC50 [12] was 2060 nM and the IC50 ([13]; A549 (KRAS G12S), same manner as Example 2) was 1110 nM. The “IC50 Ratio (A549/H1975)” value [13] was 0.31, the IC50 [14] was 1230 nM and the IC50 [15] was 1590 nM. For the same compound, the “IC50 Ratio (ZR-75-1/MX-1)” value [15] was 0.77.
In the case of `O=c1[nH]cc(F)c(=O)[nH]1` [5-FU, 5-fluorouracil, reference compound], the IC50 ([12]; Homo sapiens) is reported as 1470 nM, the IC50 ([15]; Homo sapiens) is reported as 31100 nM and the “IC50 Ratio (ZR-75-1/MX-1)” value [15] is reported as 21.2.
For `N.N.[Cl][Pt][Cl]` [Cisplatin, cisplatin, reference compound], the IC50 [2] was 47100 nM, the “IC50 Ratio (MDA-MB-231/MCF-7)” value [2] was 5.88 and the IC50 [7] was 11400 nM. The IC50 [11] was 52300 nM, the “IC50 Ratio (NCI-H322M/H1975)” value ([11]; Table 6, cisplatin column) was 4.59 and the IC50 [14] was 8010 nM.
For `CC(=O)O[C@@]12CO[C@@H]1C[C@H](O)[C@@]1(C)C(=O)[C@H](O)C3=C(C)[C@@H](OC(=O)[C@H](O)[C@@H](NC(=O)OC(C)(C)C)c4ccccc4)C[C@@](O)([C@@H](OC(=O)c4ccccc4)[C@H]21)C3(C)C` [Docetaxel, docetaxel], the IC50 (LNCaP cell line) is listed as 2.5 to 5 nM, the “IC50 Ratio (PC-3/LNCaP/)” value (PC-3 cell line [16]) is listed as 12-20 and the IC50 (PC-3 cell line [17]) is listed as 50 to 60 nM.
In the case of `CC(=O)O[C@H]1C(=O)[C@@]2(C)[C@H]([C@H](OC(=O)c3ccccc3)[C@]3(O)C[C@H](OC(=O)[C@H](O)[C@@H](NC(=O)c4ccccc4)c4ccccc4)C(C)=C1C3(C)C)[C@]1(OC(C)=O)CO[C@@H]1C[C@@H]2O` [Paclitaxel, paclitaxel, reference compound], the IC50 ([7]; Homo sapiens, NCI-H1975) is reported as 5 nM and the “IC50 Ratio (A549/H1975)” value [13] is reported as 1984.
Compound `Cn1nnc2c(C(N)=O)ncn2c1=O` [temozolomide, reference compound] has an IC50 ([8]; Homo sapiens, A-375) of 369000 nM.
